Laboratory results published in patent US20110071094A1, “(D)-ALLOSE INDUCING PROGRAMMED CELL DEATH IN HORMONE REFRACTORY PROSTATE CANCER LINES” (INDUSTRY-ACADEMIC COOPERATION FOUDATION, GYEONGSANG …, priority 2008, published 2011).

Legend:
Assay type in all cases: cell-based, human
Bax = assay: Western blot analysis of Bax protein in DU145; conditions: DU145, 40 mM, 72 h
Description: (§1) After 0, 20 and 40 mM of D-allose treatments for 72 h, DU145 cell line (1×10^6 cells in triplicate culture plates) was harvested into cell lysis buffer (Cell Signaling, Danvers, Mass., USA) supplemented with 1 mM PMSF. The cells were then sonicated, centrifuged and protein concentration was measured by Bradford assay with the Bio-Rad protein assay solution using bovine serum albumin (BSA) as standard. Proteins (30 μg) were separated on a 12.5% SDS-PAGE under reducing conditions and transferred onto a PVDF membrane (Santa Cruz Biotechnology, Santa Cruz, Calif., USA). Prestained protein marker, broad range: 6-175 kDa (New England Biolabs Inc., Ipswich, Mass., USA) run in parallel for detection of the molecular weights of the proteins. Membrane was blocked with 5% (w/v) skimmed milk in order to reduce non-specific binding and immunoblotting was performed using rabbit derived anti-Bcl-2, anti-Bax, anti-Caspase 3 and anti-PARP antibodies (1:500; Santa Cruz Biotechnology, Santa Cruz, Calif., USA). […] Membrane was probed with a goat derived horseradish peroxidase-conjugated anti-rabbit IgG (1:1000; Santa Cruz Biotechnology, Santa Cruz, Calif., USA), and proteins were detected by the enhanced chemiluminescence (ECL) detection system according to the vendor's protocol (Amersham Biosciences, Piscataway, N.J., USA) followed by X-ray exposure. […]

DU145 cell line = assay: Fura-2 measurement of [Ca^2+]c; conditions: DU145, 20 and 40 mM, 48 h
Description: [Ca^2+]c was measured by fluorescent indicator fura-2 acetoxymethyl ester (fura-2 AM) as described in Malgaroli A et al., J. Cell. Biol. 105:2145-2155, 1987. Briefly, DU145 cell line (1×10^6 cells in triplicate culture plates) was exposed to 0, 20 and 40 mM of D-allose for 48 and 72 h and then incubated with serum-free culture media containing 5 μM of fura-2AM at 37° C. in dark for another 1 h. The cells were washed twice with Locke's solution (pH 7.3) and the fura-2 fluorescence signals of [Ca^2+]c were measured by luminescence spectrophotometer (LS 50B, Perkin Elmer, Boston, Mass., USA) using 340 and 380 nm as excitation wavelengths (λex), and 510 nm as emission wavelength (λem). […] The slides were mounted with Prolong Antifade reagent (Molecular Probes, Eugene, Oreg., USA), and images (JC-1, green) were acquired by use of a fluorescence microscope (Axioplan 2, Carl Zeiss, Germany).

PARP = assay: Western blot analysis of PARP protein in DU145; conditions: DU145, 0, 20 and 40 mM, 72 h
Description: as §1

Bcl-2/Bax ratio = assay: Calculation of Bcl-2/Bax ratio from densitometry of protein bands; conditions: 72 h, 0.896 at 0 Mm
Description: After 0, 20 and 40 mM of D-allose treatments for 72 h, DU145 cell line (1×10^6 cells in triplicate culture plates) was harvested into cell lysis buffer (Cell Signaling, Danvers, Mass., USA) supplemented with 1 mM PMSF. The cells were then sonicated, centrifuged and protein concentration was measured by Bradford assay with the Bio-Rad protein assay solution using bovine serum albumin (BSA) as standard. Proteins (30 μg) were separated on a 12.5% SDS-PAGE under reducing conditions and transferred onto a PVDF membrane (Santa Cruz Biotechnology, Santa Cruz, Calif., USA). Prestained protein marker, broad range: 6-175 kDa (New England Biolabs Inc., Ipswich, Mass., USA) run in parallel for detection of the molecular weights of the proteins. […] Membrane was probed with a goat derived horseradish peroxidase-conjugated anti-rabbit IgG (1:1000; Santa Cruz Biotechnology, Santa Cruz, Calif., USA), and proteins were detected by the enhanced chemiluminescence (ECL) detection system according to the vendor's protocol (Amersham Biosciences, Piscataway, N.J., USA) followed by X-ray exposure. […] Bcl-2/bax ratios of D-allose treated groups were calculated on the basis of the densitometric analysis of the corresponding protein bands and compared the values with that of the untreated control.

cyt C = assay: Mitochondrial cyt C release and nuclear morphology, immunofluorescence; conditions: DU145, 20 and 40 mM, 48 h
Description: The in situ analysis of cyt C was carried out by immunofluorescence technique. […] Cyt C was detected by using mouse anti-cyt C antibody and rabbit anti-mouse FITC-labeled antibody (1:250 and 1:200, respectively; Santa Cruz Biotechnology, Santa Cruz, Calif., USA). DU145 cell line treated with FITC-labeled secondary antibody alone was considered as negative control. Subsequently, chromatin was stained with PI (1 mg/ml in PBS) for 20 min in dark and slides were mounted with Prolong Antifade reagent (Molecular Probes, Eugene, Oreg., USA). Cyt C (green) and chromatin (red) staining patterns were acquired by use of a confocal laser scanning microscope (Fluoview FV 1000, Olympus, Japan).

SMILES: O=C[C@H](O)[C@H](O)[C@H](O)[C@H](O)CO [D-allose]
- Bax protein expression (Bax): remarkably increased
- [Ca^2+]c (DU145 cell line): remarkably elevated
- cleaved PARP product (PARP): concomitant increase
- full length PARP protein expression (PARP): remarkable dose-dependent decrease
- Bcl-2/Bax ratio (Bcl-2/Bax ratio; DU145, 20 Mm): 0.335
- Bcl-2/Bax ratio (Bcl-2/Bax ratio; DU145, 40 Mm): 0.126
- cyt C release from mitochondria and chromatin condensation (cyt C): release of cyt C from mitochondria into cytosol and chromatin condensation
